Patent US9732047B2, “N-alkoxyamide conjugates as imaging agents” (Lantheus Medical Imaging, Inc., priority 2008, dated 2017)
Like-named read-outs stand apart in the source and are kept apart here.

Experiments:
[1] = system: Aorta bearing atherosclerotic plaque; assay: Ex-vivo blood vessel binding assay; design: species or system New Zealand white rabbits; conditions: 153Gd-labeled compound 0.135 μCi in PBS, 2 h at 37° C., plaque-bearing rabbit aorta sections; percentage of initial activity
Protocol: Aorta bearing atherosclerotic plaque was obtained from New Zealand white rabbits that were balloon stripped along the abdominal aorta and placed on a high fat diet (0.5% cholesterol) for 16-22 weeks. Vascular injury was produced with a 4-F Fogarty catheter along the abdominal aorta and right iliofemoral artery. This procedure generates an accelerated complex lesion development with a lipid rich core covered by a fibrous cap in rabbits. Harvested aorta sections (0.5 cm) were incubated with 0.135 μCi of ^153Gd-labeled compound diluted in phosphate buffered saline (450 μL) for 2 h at 37° C. The supernatant was removed and analyzed by HPLC to assay compound stability. The tissue section was then washed with phosphate buffered saline (3×10 mL), then resuspended (10 mL) and incubated at 37° C. an additional 1 h. The supernatant was then removed, the washing process repeated and the tissue finally counted on a gamma counter. The amount of compound bound to the tissue was determined as a percentage of the initial activity according to the following formula: […]

aorta [2] = conditions: 60 min post injection
Protocol: The apolipoprotein E (ApoE) knockout mouse is a model of hypercholesterolemia that develops atherosclerotic lesions in the brachiocephalic artery, the aortic arch and the abdominal aorta. Mice were fed a high-fat diet to accelerate plaque formation and compounds were tested in the mice between 35-42 weeks on diet. Test compounds were administered at 0.3-0.4 mCi/kg to anesthetized mice in a single, bolus injection via the tail vein. Blood samples were collected via the tail between 0-30 min post injection for pharmacokinetic analysis and mice were euthanized by CO2 at 60 min for tissue harvesting. The aorta was first flushed with saline through the left ventricle exiting via the femoral vein then removed from the heart to the renal bifurcation; additional biological samples were also collected (blood, muscle, liver, kidney, bile, urine, heart, femur, reproductive organ, lung, spleen and innominate artery). All samples were weighed and assayed for radioactivity; uptake is expressed as a percentage of injected dose per gram of tissue (% ID/g).

aorta [3] = conditions: 60 min post injection; remark: listed apart in the source
Protocol: Atherosclerosis was induced in New Zealand White male rabbits (3 kg) with aortic balloon endothelial injury (vide supra) followed by feeding a 0.5% cholesterol diet for 22 weeks. Test compounds were administered at 0.01-0.05 mCi/kg to anesthetized rabbits in a single, bolus injection via the marginal ear vein. Blood samples were collected from the central ear artery at 0, 2, 5, 7, 10, 15, 30 and 60 min post injection. Rabbits were euthanized at 60 min post injection for tissue harvesting (blood, muscle, bile, urine, kidney, liver, spleen, heart, lung, colon, small intestine, stomach, testes and in some cases, sternum, ligament and right ear). Abdominal aorta (upper, middle, and lower) and left and right femoral arteries were also collected. All samples were weighed and assayed for radioactivity; uptake is expressed as percentage of injected dose per gram of tissue (% ID/g).

aorta [4] = assay: In vivo rabbit aorta MR imaging; design: species or system New Zealand White male rabbits; conditions: atherosclerotic rabbit, 0.1 mmol/kg via marginal ear vein, MR at 4.7 T, shortly after injection
Protocol: A series of pre-injection images were acquired. The rabbit was then injected with test compound (i.e., Example 31) at 0.1 mmol/kg via the marginal ear vein and images acquired at specified time intervals. All images were acquired at 4.7 T using an 8.5 cm field of view, 256×256 matrix using a black blood, flow-suppressed spin-echo method.

| Compound | % bound [1] | aorta uptake (% ID/g) (aorta [2]; ApoE mice on high-fat diet 35-42 weeks, 0.3-0.4 mCi/kg bolus via tail vein) | aorta:blood (aorta [2]; ApoE mice, uptake ratio) | aorta:heart (aorta [2]; ApoE mice, uptake ratio) | aorta (% ID/g ± SD) (aorta [3]; control rabbit (non-plaque bearing), 0.01-0.05 mCi/kg bolus via marginal ear vein) | aorta:blood (aorta [3]; control rabbit) | aorta:heart (aorta [3]; control rabbit) | relative image intensity in the aorta (aorta [4]) |
| --- | --- | --- | --- | --- | --- | --- | --- | --- |
| N[C@H](Cc1cc2ccccc2[nH]1)C(=O)NOCc1ccc(CNC(=O)CN2CCN(CC(=O)[O-])CCN(CC(=O)[O-])CCN(CC(=O)[O-])CC2)cc1.[153Gd+3] [Example 62] | 17.1% | 11.8 ± 1.4 % ID/g | 5.7 | 22.2 | 0.159 % ID/g | 3.2 | 6.4 | – |
| CC(C)C[C@@H](N)C(=O)NOCc1ccc(CNC(=O)CN2CCN(CC(=O)[O-])CCN(CC(=O)[O-])CCN(CC(=O)[O-])CC2)cc1.[Gd+3] [Example 31] | – | – | – | – | – | – | – | marked increase of relative image intensity in the aorta |
